The values that follow come from PMC12299285, “Isolation and Identification of Secondary Metabolites in Rheum tataricum L.fil. Growing in Kazakhstan and Surveying of Its Anticancer Potential” (Molecules, 2025).

The test system of test [1] is C33 A (HPV-negative human cervical cancer cell line). The test is described as follows: MTT cytotoxicity assay, C33 A cervical cancer cells. Format: cell-based. As to conditions: read-out: Growth Inhibition of Cells (GI50 ± SEM) C33 A (HPV-Negative).
For test [2], the system named is CaSki (HPV16-positive human cervical cancer cell line). In words: MTT cytotoxicity assay, CaSki cervical cancer cells. The class given is cell-based. As to conditions: 48 h incubation, three independent experiments, read-out: Growth Inhibition of Cells (GI50 ± SEM) CaSki (HPV-16). (In general: Formazan colour is commonly taken as a measure of viable cells.)
Test [3] has as its system HeLa (HPV18-positive human cervical cancer cell line). The test is described as follows: MTT cytotoxicity assay, HeLa cervical cancer cells. Format: cell-based. As to conditions: 48 h incubation, three independent experiments, read-out: Growth Inhibition of Cells (GI50 ± SEM) HeLa (HPV-18).
The test system of test [4] is MCF-7 breast adenocarcinoma cells. The test is described as follows: MTT cytotoxicity assay, MCF-7 breast adenocarcinoma cells. The class given is cell-based, human. As to conditions: three independent experiments, read-out: Growth Inhibition of Cells (GI50 ± SEM) MCF-7.
The test system of test [5] is DU-145 prostate cancer cell line. The test is described as follows: MTT cytotoxicity assay, DU-145 prostate cancer cells. Format: cell-based, human. Conditions: three independent experiments, read-out: Growth Inhibition of Cells (GI50 ± SEM) DU-145.
Test [6] has as its system SNB-19 glioblastoma cell line. The test is described as follows: MTT cytotoxicity assay, SNB-19 glioblastoma cells. Format: cell-based, human. Conditions: three independent experiments, read-out: Growth Inhibition of Cells (GI50 ± SEM) SNB-19.
The subject of test [7] is T98G glioblastoma cell line. In words: MTT cytotoxicity assay, T98G glioblastoma cells. The class given is cell-based, human. As to conditions: 48 h incubation, three independent experiments, read-out: Growth Inhibition of Cells (GI50 ± SEM) T98G.
Test [8] deals with Normal epithelial VERO cells. The test is described as follows: MTT cytotoxicity assay, normal epithelial VERO cells (non-cancer control). The class given is cell-based, African green monkey. Conditions: 48 h incubation, three independent experiments, read-out: Growth Inhibition of Cells (GI50 ± SEM) VERO.
Details of test [9]: method as in PMID 21725818. Conditions: mice; cited from earlier work.
Details of test [10]: method as in PMID 21725818. Conditions: rats; cited from earlier work.
The next test relates to activated macrophages. Details: method as in PMID 9810263. Conditions: in vivo; cited from earlier work.
The mark [11] stands for this setting: Homo sapiens, MCF7, 48 h, 48 h incubation.
Setting [12] is: Homo sapiens, DU-145, 48 h incubation.
[13] abbreviates: Homo sapiens, SNB-19, 48 h incubation.
The mark [14] stands for this setting: Chlorocebus sabaeus, Vero, 48 h.
[15] abbreviates: Homo sapiens, C-33-A, MTT, 48 h incubation, three independent experiments.

In general, GI50 refers to the concentration at which growth is held to half of that of the control.

Like-named read-outs stand apart in the source and are kept apart here.

For “1-O-Galloyl-β-D-glucopyranose [Compound 6]”, the GI50 in test [1] (MTT, 48 h incubation, three independent experiments) was 27 ± 2.6 µM; in test [2] it was 18 ± 1.4 µM; in test [3], 29 ± 2.4 µM; in [4] (48 h incubation), 31 ± 0.7 µM; in [5] (48 h incubation), 67 ± 6.4 µM; in test [6] (48 h incubation) it was 26 ± 1.2 µM. Besides, the values for the GI50 in [7] and in test [8] were 21 ± 0.8 µM and over 100 µM, respectively.

Turning to `C[C@H](CCc1ccc(O)cc1)O[C@@H]1O[C@H](CO)[C@@H](O)[C@H](O)[C@H]1O` [Compound 1, (R)-4-(4-Hydroxyphenyl)-2-butanol 2-β-D-glucopyranoside], the GI50 in [1] (Homo sapiens, C-33-A, 48 h) amounted to 27 ± 1.4 µM; in test [2] (Homo sapiens, Ca-Ski) it was 12 ± 0.7 µM; in [3] (Homo sapiens, HeLa), 16 ± 0.8 µM; in test [4] (setting [11]), 10 ± 1.8 µM; in test [5] (setting [12]) it was 21 ± 2.3 µM; in [6] (setting [13]) it was 23 ± 4.1 µM. Moreover, the GI50 in test [7] (Homo sapiens, T98G) was 29 ± 2.5 µM; in [8], over 100 µM; in [8] (setting [14]) it was over 83 µM. Moreover, the analgesic actions result in [9] is recorded as “significant analgesic actions”. Also, the anti-inflammatory actions result in test [10] is on record as “anti-inflammatory actions”.

With `C[C@@H](CCc1ccc(O)cc1)O[C@@H]1O[C@H](CO)[C@@H](O)[C@H](O)[C@H]1O` [Compound 3, (S)-4-(4-Hydroxyphenyl)-2-butanol 2-β-D-glucopyranoside], the “NO production by activated macrophages” value with activated macrophages is listed as “suppressed NO production”.

`C[C@@H](O)CCc1ccc(O)cc1` [Compound 4, (R)-4-(4-Hydroxyphenyl)-2-butanol]: the GI50 in [1] (setting [15]) came out at 28 ± 0.5 µM; in [2] (Homo sapiens, Ca-Ski), 10 ± 0.6 µM; in test [3] (Homo sapiens, HeLa) it was 29 ± 0.7 µM; in [4] (setting [11]), 11 ± 1.4 µM; in [5] (setting [12]) it was 21 ± 0.8 µM; in test [6] (setting [13]) it was 15 ± 0.9 µM. For the same molecule, the GI50 was 18 ± 1.1 µM in test [7] (Homo sapiens, T98G); over 100 µM in test [8]; over 83 µM in test [8] (setting [14]).

`C[C@H](O)CCc1ccc(O)cc1` [Compound 5, (S)-4-(4-Hydroxyphenyl)-2-butanol]: the “NO production by activated macrophages” value in the test with activated macrophages is “suppressed NO production”.

Turning to `CC(=O)CCc1ccc(O)cc1` [Compound 9, 4-(4-Hydroxyphenyl)butan-2-one], the GI50 in [1] (setting [15]) was found to be 19 ± 2.2 µM; in test [2] (Homo sapiens, Ca-Ski), 20 ± 1.5 µM; in test [3] (Homo sapiens, HeLa), 23 ± 3.7 µM; in test [4] (setting [11]), 21 ± 2.1 µM; in [5] (setting [12]) it was 60 ± 1.7 µM; in test [6] (setting [13]), 33 ± 1.8 µM. The GI50 is 19 ± 0.9 µM in test [7] (Homo sapiens, T98G); over 100 µM in [8]; over 83 µM in test [8] (setting [14]).

For the molecule `COc1ccc(C=Cc2cc(O)cc(OC3OC(CO)C(O)C(O)C3O)c2)cc1` [Compound 11, 3,5-Dihydroxy-4′-methoxystilbene-3-O-β-D-glucopyranoside], the 50% growth inhibitory concentration (GI50) in test [3] (Homo sapiens, HeLa) is 17 ± 0.9 µM; in [4] (48 h incubation), 8 ± 1.8 µM; in [4] (setting [11]), 7 to 8 µM; in test [6] (setting [13]) it was 13 ± 1.1 µM; in test [7] (Homo sapiens, T98G), 18 ± 3.5 µM; in test [8], 92 ± 7.9 µM. The GI50 in [8] (setting [14]) was over 83 µM.

Turning to `OC[C@H]1O[C@@H](Oc2ccc(/C=C/c3cc(O)cc(O)c3)cc2)[C@H](O)[C@@H](O)[C@@H]1O` [Compound 12, (E)-resveratrol 4′-O-β-D-glucopyranoside], the GI50 in test [3] (Homo sapiens, HeLa) is 18 ± 1.6 µM; in test [4] (48 h incubation) it was 7 ± 1.2 µM; in test [4] (setting [11]), 7 to 8 µM; in test [6] (setting [13]), 9.2 ± 0.8 µM; in [7] (Homo sapiens, T98G), 21 ± 1.7 µM; in [8], 98 ± 4.8 µM. In test [8] (setting [14]), the GI50 was over 83 µM.

In the case of `COc1cccc2c1C(=O)c1c(O)c3c(c(O)c1C2=O)C[C@@](O)(C(=O)CO)C[C@@H]3O[C@H]1C[C@H](N)[C@H](O)[C@H](C)O1` [Doxorubicin, reference compound], the GI50 was found to be 10.1 ± 0.7 µM in test [2] (Homo sapiens, Ca-Ski); 6.1 ± 0.7 µM in test [3] (Homo sapiens, HeLa); 5.2 ± 0.8 µM in test [4] (Homo sapiens, MCF7, 48 h incubation); 15 ± 0.3 µM in [5] (setting [12]); 7.6 ± 0.7 µM in test [6] (setting [13]); 13 ± 0.5 µM in test [7] (Homo sapiens, T98G). Also, the GI50 in test [8] (Chlorocebus sabaeus, Vero) came to 8 ± 1.8 µM.
